Experimental data from patent US20250282746A1, “HALOGEN-SUBSTITUTED ISOINDOLINE COMPOUND AND USE THEREOF” (CHENGDU FENDI PHARMACEUTICAL CO., LTD., priority 2022, published 2025).
pIC50: −log10 of the molar value.

Columns and labels:
MV-4-11 cells = experiment: Antiproliferative activity against MV-4-11 cells (CellTiter-Glo, 72 h); type: cell-based; conditions: Homo sapiens, MV4-11; MV-4-11 cells, 72 h; read-out: Antiproliferative activity IC50
Procedure: MV411 cells in the logarithmic growth phase were diluted in a medium (RPMI+10% FBS) and plated at 5,000 cells/well in 96-well whole black plates (WHB) with 50 μL/well. After plating, the plates were incubated in an incubator at 5% CO2 and 37° C. for 24 h before the compounds were added. The compounds were prepared into a 10 mM stock solution in DMSO and diluted in a culture medium to the desired concentrations (a final DMSO concentration of 0.2%). […] The plates were incubated at 5% CO2 and 37° C. for 72 h. After the incubation was complete, the plates were equilibrated at room temperature for 30 min. CellTiter-Glo® Reagent (Promega G7573) was added at 100 μL/well. The plates were shaken for 12 min on a microplate shaker. The luminescence value was measured at room temperature by the GloMax navigator (Promega GM2010).

GSPT1 protein = target: T1, GSPT1 protein (Homo sapiens, UniProt P15170); experiment: Degradation of GSPT1 protein in NB-4 cells (Western blot); type: cell-based; conditions: NB-4 cells, compound 1 μM, 6 h; for inhibition at 1 µM: read-out: GSPT1 degradation
T1 construct: The whole cell lysate was prepared using a RIPA lysis buffer; endogenous in cells; host or cells: NB-4 cells
T1 sequence (P15170 whole entry): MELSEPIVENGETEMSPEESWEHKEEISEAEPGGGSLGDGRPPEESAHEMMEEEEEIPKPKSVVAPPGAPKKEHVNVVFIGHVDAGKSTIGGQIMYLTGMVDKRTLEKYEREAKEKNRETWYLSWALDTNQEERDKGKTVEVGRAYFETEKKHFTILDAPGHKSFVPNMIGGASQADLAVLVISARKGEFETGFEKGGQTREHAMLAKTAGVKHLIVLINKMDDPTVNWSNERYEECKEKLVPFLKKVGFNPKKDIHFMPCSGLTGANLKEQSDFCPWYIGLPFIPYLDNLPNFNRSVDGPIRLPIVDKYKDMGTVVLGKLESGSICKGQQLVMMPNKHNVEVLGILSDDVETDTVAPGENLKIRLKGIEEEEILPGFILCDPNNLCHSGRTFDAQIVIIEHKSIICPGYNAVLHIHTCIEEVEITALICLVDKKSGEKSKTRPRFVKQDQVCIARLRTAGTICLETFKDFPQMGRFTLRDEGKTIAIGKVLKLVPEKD
Procedure: 150 μL of DMSO and the compounds (1 μM) were added, and the mixture was incubated in an incubator at 5% CO2 and 37° C. for 6 h. The cells were centrifuged, and the culture medium was discarded. PBS was added for washing and then discarded. The whole cell lysate was prepared using a RIPA lysis buffer containing a protease inhibitor cocktail and a phosphatase inhibitor, and incubated on ice for 30 min. The mixture was centrifuged, and the cell debris was discarded. The whole cell lysate supernatant was collected and transferred to a fresh EP tube. Samples were prepared using a loading buffer after a BCA protein assay. The samples were incubated in a metal bath at 100° C. for 10 min.
The samples were electrophoretically separated from proteins on a 4-20% precast gel (SDS-PAGE gel), transferred to a PVDF membrane, blocked with 5% NFDM/TBST for 1 h at room temperature, co-incubated overnight at 4° C. with the primary antibody, and co-incubated for 2 h at room temperature with the secondary antibody on the next day. The signals were detected on the […]™ imaging system.

Structure (SMILES) | pIC50 (MV-4-11 cells) | inhibition at 1 µM (GSPT1 protein) [%] | GSPT1 degradation (GSPT1 protein)
O=C(C#Cc1ccccn1)NCc1ccc2c(c1F)CN(C1CCC(=O)NC1=O)C2=O (stereo not drawn) [FDAB-148] | 8.00 to 9.00 | > 80 | –
O=C1CCC(N2Cc3c(ccc(CNC(=O)c4ccc(Cl)c(F)c4)c3Cl)C2=O)C(=O)N1 (stereo not drawn) [FDAB-118] | 7.00 to 8.00 | 50 to 80 | –
O=C1CCC(N2Cc3cc(CNC(=O)C4CCCCC4)c(F)cc3C2=O)C(=O)N1 (stereo not drawn) [FDAB-42] | < 6.00 | < 25 | –
O=C1CCC(N2Cc3cc(CNC(=O)c4ccc(Cl)c(F)c4)c(F)cc3C2=O)C(=O)N1 (stereo not drawn) [FDAB-53] | 7.00 to 8.00 | > 80 | –
Nc1cc(-c2ccccc2)ccc1C(=O)NCc1ccc2c(c1F)CN(C1CCC(=O)NC1=O)C2=O (stereo not drawn) [FDAB-176] | 8.00 to 9.00 | – | –
O=C1CCC(N2Cc3c(ccc(CNC(=O)c4cc5ccccc5[nH]4)c3Cl)C2=O)C(=O)N1 (stereo not drawn) [FDAB-75] | 8.00 to 9.00 | 50 to 80 | –
O=C1CCC(N2Cc3cc(CNC(=O)c4cc5cc(Cl)ccc5o4)cc(F)c3C2=O)C(=O)N1 (stereo not drawn) [FDAB-22] | < 6.00 | < 25 | –
O=C(CCc1cccc2ccccc12)NCc1cc(F)cc2c1CN(C1CCC(=O)NC1=O)C2=O (stereo not drawn) [FDAB-170] | 7.00 to 8.00 | > 80 | –
O=C1CCC(N2Cc3c(ccc(CNC(=O)c4ccc(Cl)cc4)c3Cl)C2=O)C(=O)N1 (stereo not drawn) [FDAB-70] | 6.00 to 7.00 | 25 to 50 | –
O=C1CCC(N2Cc3c(ccc(CNC(=O)c4ccc(C5CC5)cc4)c3F)C2=O)C(=O)N1 (stereo not drawn) [FDAB-97] | 8.00 to 9.00 | > 80 | –
CCc1ccc(C(=O)NCc2ccc3c(c2F)CN(C2CCC(=O)NC2=O)C3=O)cc1 (stereo not drawn) [FDAB-90] | 8.00 to 9.00 | > 80 | –
Cc1ccc(C(=O)NCc2ccc3c(c2Cl)CN(C2CCC(=O)NC2=O)C3=O)cc1F (stereo not drawn) [FDAB-122] | 6.00 to 7.00 | < 25 | –
O=C1CCC(N2Cc3cc(CNC(=O)C4CC4)c(F)cc3C2=O)C(=O)N1 (stereo not drawn) [FDAB-40] | < 6.00 | < 25 | –
O=C1CCC(N2Cc3c(ccc(CNC(=O)c4ccc(Oc5ccccc5)cc4)c3F)C2=O)C(=O)N1 (stereo not drawn) [FDAB-101] | > 9.00 | > 80 | –
Nc1ccc(-c2ccc(C#CC(=O)NCc3ccc4c(c3F)CN(C3CCC(=O)NC3=O)C4=O)cc2)cc1 (stereo not drawn) [FDAB-184] | > 9.00 | – | –
CC(C)(C)OC(=O)NCc1cc(F)c2c(c1)CN(C1CCC(=O)NC1=O)C2=O (stereo not drawn) [FDAB-8] | < 6.00 | < 25 | –
Cc1ccc(C(=O)NCc2ccc3c(c2F)CN(C2CCC(=O)NC2=O)C3=O)cc1N (stereo not drawn) [FDAB-112] | 7.00 to 8.00 | > 80 | –
CN(C)c1ccc(C(=O)NCc2ccc3c(c2F)CN(C2CCC(=O)NC2=O)C3=O)cc1 (stereo not drawn) [FDAB-86] | 8.00 to 9.00 | > 80 | –
O=C1CCC(N2Cc3c(CNC(=O)C(F)(F)c4ccc(Cl)cc4)cc(F)cc3C2=O)C(=O)N1 (stereo not drawn) [FDAB-171] | 6.00 to 7.00 | < 25 | –
O=C1CCC(N2Cc3c(ccc(CNC(=O)c4ccc(OCc5ccccc5)c(O)c4)c3F)C2=O)C(=O)N1 (stereo not drawn) [FDAB-179] | > 9.00 | – | –
O=C1CCC(N2Cc3cc(CNC(=O)c4ccccn4)c(F)cc3C2=O)C(=O)N1 (stereo not drawn) [FDAB-29] | < 6.00 | < 25 | –
O=C1CCC(N2Cc3cc(CNC(=O)c4cc5ccccc5o4)c(F)cc3C2=O)C(=O)N1 (stereo not drawn) [FDAB-19] | 8.00 to 9.00 | > 80 | –
CC(C)c1ccc(C(=O)NCc2ccc3c(c2F)CN(C2CCC(=O)NC2=O)C3=O)cc1 (stereo not drawn) [FDAB-93] | > 9.00 | > 80 | –
O=C(Cc1cc2ccccc2s1)NCc1ccc2c(c1F)CN(C1CCC(=O)NC1=O)C2=O (stereo not drawn) [FDAB-136] | 8.00 to 9.00 | > 80 | –
O=C1CCC(N2Cc3cc(CNC(=O)c4ccc(F)cc4)c(F)cc3C2=O)C(=O)N1 (stereo not drawn) [FDAB-26] | < 6.00 | < 25 | –
CCCc1ccc(C(=O)NCc2ccc3c(c2F)CN(C2CCC(=O)NC2=O)C3=O)cc1 (stereo not drawn) [FDAB-91] | > 9.00 | > 80 | –

Structure (SMILES) | pIC50 (MV-4-11 cells) | inhibition at 1 µM (GSPT1 protein) [%] | GSPT1 degradation (GSPT1 protein)
[2H]c1c([2H])c([2H])c(C(=O)NCc2ccc3c(c2F)CN(C2CCC(=O)NC2=O)C3=O)c([2H])c1[2H] (stereo not drawn) [FDAB-88] | < 6.00 | < 25 | –
N#Cc1ccc2c(c1Cl)CN(C1CCC(=O)NC1=O)C2=O (stereo not drawn) [FDAB-10] | < 6.00 | < 25 | –
Cc1cccc(C(=O)NCc2ccc3c(c2F)CN(C2CCC(=O)NC2=O)C3=O)c1 (stereo not drawn) [FDAB-89] | < 6.00 | < 25 | –
Nc1cc(C(=O)NCc2ccc3c(c2F)CN(C2CCC(=O)NC2=O)C3=O)ccc1Cl (stereo not drawn) [FDAB-113] | 7.00 to 8.00 | > 80 | –
O=C1CCC(N2Cc3cc(CNC(=O)C4CCCC4)c(F)cc3C2=O)C(=O)N1 (stereo not drawn) [FDAB-41] | < 6.00 | < 25 | –
O=C1CCC(N2Cc3c(ccc(CNCc4ccc(Cl)cc4)c3F)C2=O)C(=O)N1 (stereo not drawn) [FDAB-168] | 7.00 to 8.00 | > 80 | –
O=C1CCC(N2Cc3cc(CNC(=O)c4cnco4)c(F)cc3C2=O)C(=O)N1 (stereo not drawn) [FDAB-43] | < 6.00 | < 25 | –
CCCCCCCCCCCCSC(=S)SC(C)(C)C(=O)NCc1ccc2c(c1F)CN(C1CCC(=O)NC1=O)C2=O (stereo not drawn) [FDAB-163] | < 6.00 | < 25 | –
O=C1CCC(N2Cc3cc(CNC(=O)c4ccncn4)c(F)cc3C2=O)C(=O)N1 (stereo not drawn) [FDAB-38] | < 6.00 | < 25 | –
O=C1CCC(N2Cc3cc(CNC(=O)c4cccnc4)c(F)cc3C2=O)C(=O)N1 (stereo not drawn) [FDAB-30] | < 6.00 | < 25 | –
O=C(C#Cc1ccc(-c2ccc(CCO)cc2)cc1)NCc1ccc2c(c1F)CN(C1CCC(=O)NC1=O)C2=O (stereo not drawn) [FDAB-187] | > 9.00 | – | –
CC(C)(CN)c1ccc(C(=O)NCc2ccc3c(c2F)CN(C2CCC(=O)NC2=O)C3=O)cc1 (stereo not drawn) [FDAB-174] | 7.00 to 8.00 | – | –
NCc1ccc(-c2ccc(C(=O)NCc3ccc4c(c3F)CN(C3CCC(=O)NC3=O)C4=O)cc2)cc1 (stereo not drawn) [FDAB-175] | > 9.00 | – | –
CC(C)(C)c1ccc(C(=O)NCc2ccc3c(c2F)CN(C2CCC(=O)NC2=O)C3=O)cc1O (stereo not drawn) [FDAB-173] | > 9.00 | – | –
CC(C)(C)c1ccc(C(=O)NCc2ccc3c(c2F)CN(C2CCC(=O)NC2=O)C3=O)c(N)c1 (stereo not drawn) [FDAB-172] | > 9.00 | – | –
NCCc1ccc(-c2ccc(C#CC(=O)NCc3ccc4c(c3F)CN(C3CCC(=O)NC3=O)C4=O)cc2)cc1 (stereo not drawn) [FDAB-188] | 8.00 to 9.00 | – | –
O=C(C#Cc1ccc(-c2ccc(O)cc2)cc1)NCc1ccc2c(c1F)CN(C1CCC(=O)NC1=O)C2=O (stereo not drawn) [FDAB-186] | > 9.00 | – | –
O=C1CCC(N2Cc3c(ccc(CNC(=O)Nc4ccc(CCO)c(Cl)c4)c3F)C2=O)C(=O)N1 (stereo not drawn) [FDAB-183] | > 9.00 | – | –
N[C@@H](CC(=O)NCc1ccc2c(c1F)CN(C1CCC(=O)NC1=O)C2=O)C(c1ccccc1)c1ccccc1 (stereo partly drawn) [FDAB-181] | 8.00 to 9.00 | – | –
CC(CCC(=O)NCc1ccc2c(c1F)CN(C1CCC(=O)NC1=O)C2=O)(c1ccc(O)cc1)c1ccc(O)cc1 (stereo not drawn) [FDAB-180] | 7.00 to 8.00 | – | –
O=C1CCC(N2Cc3cc(CNC(=O)Nc4ccc(CCO)c(Cl)c4)ccc3C2=O)C(=O)N1 (stereo not drawn) [FDAB-185] | 8.00 to 9.00 | – | –
Nc1ccc(-c2ccc(C(=O)NCc3ccc4c(c3F)CN(C3CCC(=O)NC3=O)C4=O)cc2)cc1 (stereo not drawn) [FDAB-177] | > 9.00 | – | –
NCCc1ccc(NC(=O)NCc2ccc3c(c2F)CN(C2CCC(=O)NC2=O)C3=O)cc1Cl (stereo not drawn) [FDAB-182] | 8.00 to 9.00 | – | –
COc1cc(C(=O)NCc2ccc3c(c2F)CN(C2CCC(=O)NC2=O)C3=O)c(N)cc1OCc1ccccc1 (stereo not drawn) [FDAB-178] | > 9.00 | – | –
O=C1CCC(N2Cc3cc(CNC(=O)c4ccc(Cl)cn4)c(F)cc3C2=O)C(=O)N1 (stereo not drawn) [FDAB-57] | – | – | D (D denotes a percentage of degradation less than 25%)
